Measurements published in patent US8394779B2, “Methods of modulating angiogenesis via TRPV4” (Children's Medical Center Corporation, priority 2008, dated 2013).
“Also recorded” adds a separate entry of the source. Where no end group is shown, it is not given here. [ ]: non-standard residue; d: D form.

Assays:
TRPV4-EGFP = assay: Whole-cell patch clamp of bovine CE cells transfected with TRPV4-EGFP; type: cell-based; conditions: 4 μM
Experimental: One day after bovine CE cells were transfected with TRPV4-EGFP, they were plated on gelatin-coated glass coverslips and allowed to grow for ˜24 h prior to recording. Cells were recorded in the whole-cell mode using borosilicate glass pipettes (1-3 MΩ) containing: (in mM) 120 CsMeSO3, 10 EGTA, 2 MgCl2, 10 HEPES; pH and osmolarity were adjusted with CsOH or HMeSO3, as needed, to 7.2 (23° C.) and ˜300 mOsm, respectively. Cells were bathed in a solution containing (in mM): 138 NaCl, 5 KCl, 1.8 CaCl2, 1 MgCl2, 10 HEPES; pH and osmolarity were adjusted with NaOH or HCl, as needed, to 7.4 (23° C.) and ˜310 mOsm, respectively. Cells were held at −40 mV for 3-5 min to allow for intracellular dialysis. Bath superfusion was stopped prior to initiating the recording of currents resulting from the indicated voltage protocol applied every 5 s. Immediately before use, a 4-α-PDD stock solution (2 mM in EtOH, on ice) was diluted 1:50 in bath solution under vortex and 50 μl was subsequently added to a still bath (0.5 ml) by pipette (final concentrations of 4 μM 4-α-PDD and 0.2% EtOH) and mixed by 3 gentle up/down pipette strokes. […]

TRPV4 channels [1] = target: T1, TRPV4 channels (Homo sapiens, UniProt Q9HBA0); assay: Calcium imaging with TRPV channel activator; type: cell-based; conditions: human CE cells, 2 μM
T1 construct: host or cells: human dermal microvascular endothelial cells (HMVECs)
Experimental: (§1) CE cells cultured on fibronectin-coated 6 well UNIFLEX™ (FLEXCELL® International) plates for 24 hours were subjected to uniaxial cyclic stretch (10% elongation; 1 Hz frequency) for 1-2 h using a FLEXERCELL® TENSION PLUS™ System (FLEXCELL® International). In some experiments, CE cells were plated on fibronectin-coated 6 well BIOFLEX® (FLEXCELL® International) for lh and subjected to static stretch (15% elongation) for 1-15 min. Control cells were maintained under identical conditions in the absence of strain application. […] Images were acquired for every 4 seconds and analyzed using IP lab software and Microsoft Excel as described in Matthews, et. al. (2006) (J. Cell Sci., 119:508-518). Calcium imaging with TRPV channel activators was performed on cells cultured on MatTek glass bottomed dishes on LEICA® Confocal Microscope and analyzed using LEICA® software and MICROSOFT® EXCEL®. siRNA knock down of TRPV channels: smart pool siRNAs (10 nM) of TRPV2, TRPV4 (both from Dharmacon), TRPC1 (AMBION®) or control (QIAGEN®) siRNAs was transfected into CE cells using SILENTFECT™ reagent (BIORAD®) as described in Mammoto et. al. (2007) (J. Cell Sci., 120:456-467). […] The knock down of TRPV channel expression was assessed using RT-PCR with species-specific primers and Western blotting. […]

TRPV4 channels [2] = target: T2, TRPV4 channels (Bos taurus, UniProt A0A8F4X677); assay: Calcium imaging with TRPV channel activator; type: cell-based; conditions: bovine CE cells, 2 μM
T2 construct: endogenous in cells; host or cells: bovine CE cells
Experimental: as §1

VEGF [3] = conditions: cited from earlier work
[4] = mice; cited from earlier work
β1 integrin [5] = assay: Strain-induced β1 integrin activation (GST-FNIII8-11 binding, T788/789 phosphorylation); type: cell-based; conditions: human CE cells; 30 min pretreatment
Experimental: (§2) Western blotting were performed according to methods published in Mammoto et. al. (2007) (J. Cell Sci., 120:456-467). Membranes containing transferred protein were blocked in 3% BSA/TBST for 1 h and incubated overnight with primary antibodies against AKT and phospho Ser-473 AKT (1:1000), phospho-Thr 788/789 of […] integrin cytoplasmic tail (1:1000), ERK1/2 and phospho ERK1/2 (1:1000), FAK and phospho FAK-pY397 (1:1000), actin (1:1000) and TRPV4 (1:1000) at 4° C. The membranes were subsequently washed incubated with HRP-conjugated secondary antibodies (1:5000) for 1 h and washed and incubated with SUPERSIGNAL® West Pico ECL reagent from Pierce Biotechnology Inc. (USA) and exposed to Kodak X-ray film (SIGMA ALDRICH®).
(§3) β1 integrin activation was measured using a glutathione S-transferase (GST) fusion protein consisting of FN III repeat 8-11 domains or 12G10 antibodies (Orr, A. W. et. al., 2006, Mol. Biol. Cell 17:4686-4697). Briefly, cells subjected to mechanical stretch were incubated with either 5 μg/ml of GST-FN III8-11 protein or 12G10 antibodies in PBS containing Ca^2+ and Mg^2+ for 30 min at 37° C., washed and lysed in SDS-sample buffer. The samples were separated on SDS-PAGE and the bound reagents were assessed on Western blots using anti GST-antibodies and HRP-conjugated secondary antibodies.

[6] = system: cytosolic calcium in CE cells; conditions: within 2-5 sec; cited from earlier work
β1 integrin [7] = assay: Strain-induced β1 integrin activation (GST-FNIII8-11 / 12G10 binding, T788/789 phosphorylation); type: cell-based; conditions: bovine CE cells, GST-FNIII8-11 and 12G10 binding
Experimental: as §2, §3

[8] = system: cytosolic calcium in CE cells; assay: Calcium influx on direct force application to cell surface integrins; type: cell-based, bovine; conditions: within 5 to 50 msec
bovine CE cells = assay: Cyclic strain-induced CE cell reorientation (alignment); type: cell-based
Experimental: as §1

PI3K = assay: Strain-induced PI3K activity (GFP-AKT-PH translocation, AKT Ser-473 phosphorylation); type: cell-based, bovine; conditions: mechanical strain 15%
Experimental: Cells adherent to flexible ECM substrates and subjected to mechanical stretch were washed in PBS, fixed in 4% paraformaldehyde for 30 min either mounted on glass slides (for visualizing GFP-AKT-PH translocation) or permeabilized with 0.25% TRITON®-X 100/PBS for 5 min for immuno staining. […] Images were acquired on a LEICA® Confocal SP2 microscope and processed using LEICA® software and Adobe Photoshop. GFP-AKT-PH domain translocation to the plasma membrane was quantified measuring either ratio of the perimeter of whole cell membrane and the membrane that contains the GFP-AKT-PH domain or the ratio of GFP fluorescence intensity of translocated GFP-AKT-PH domain and cytosol adjacent to the membrane. […] Statistical differences between experimental groups were determined using the student t-test.
Membranes containing transferred protein were blocked in 3% BSA/TBST for 1 h and incubated overnight with primary antibodies against AKT and phospho Ser-473 AKT (1:1000), phospho-Thr 788/789 of 131 integrin cytoplasmic tail (1:1000), ERK1/2 and phospho ERK1/2 (1:1000), FAK and phospho FAK-pY397 (1:1000), actin (1:1000) and TRPV4 (1:1000) at 4° C. […]

[9] = system: cytosolic calcium in CE cells; assay: Mechanical strain-induced calcium influx, FLUO-4 calcium imaging; type: cell-based, bovine; conditions: strain 15%, 3-4 sec, gadolinium chloride 25 μM, siRNA 10 nM
Experimental: as §1

VEGF [10] = conditions: in vivo; cited from earlier work

T2 sequence (A0A8F4X677 1-871): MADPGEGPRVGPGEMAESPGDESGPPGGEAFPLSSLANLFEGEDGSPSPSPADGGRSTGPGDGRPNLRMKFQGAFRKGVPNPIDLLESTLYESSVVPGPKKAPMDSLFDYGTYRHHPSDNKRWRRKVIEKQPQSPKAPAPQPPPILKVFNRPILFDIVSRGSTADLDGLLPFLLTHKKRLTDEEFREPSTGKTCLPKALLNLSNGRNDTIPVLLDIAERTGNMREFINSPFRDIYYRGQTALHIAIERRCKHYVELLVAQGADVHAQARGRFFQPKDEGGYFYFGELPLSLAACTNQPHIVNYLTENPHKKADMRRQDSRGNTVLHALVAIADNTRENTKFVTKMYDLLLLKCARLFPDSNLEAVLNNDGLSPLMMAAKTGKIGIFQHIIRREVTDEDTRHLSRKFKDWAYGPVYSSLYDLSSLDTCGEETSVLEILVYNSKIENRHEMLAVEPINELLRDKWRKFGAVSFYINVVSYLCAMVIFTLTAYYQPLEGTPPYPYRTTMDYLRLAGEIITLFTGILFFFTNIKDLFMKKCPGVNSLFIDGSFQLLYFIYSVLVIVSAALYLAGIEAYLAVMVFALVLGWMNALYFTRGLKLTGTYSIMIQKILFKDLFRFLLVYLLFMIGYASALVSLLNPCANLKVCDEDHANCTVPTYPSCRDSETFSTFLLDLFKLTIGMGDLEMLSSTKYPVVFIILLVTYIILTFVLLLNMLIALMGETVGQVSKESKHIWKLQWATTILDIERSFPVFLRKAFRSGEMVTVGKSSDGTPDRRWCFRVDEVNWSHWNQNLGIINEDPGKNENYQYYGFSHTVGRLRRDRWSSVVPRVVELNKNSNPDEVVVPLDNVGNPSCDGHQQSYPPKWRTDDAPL
T1 sequence (Q9HBA0 whole entry): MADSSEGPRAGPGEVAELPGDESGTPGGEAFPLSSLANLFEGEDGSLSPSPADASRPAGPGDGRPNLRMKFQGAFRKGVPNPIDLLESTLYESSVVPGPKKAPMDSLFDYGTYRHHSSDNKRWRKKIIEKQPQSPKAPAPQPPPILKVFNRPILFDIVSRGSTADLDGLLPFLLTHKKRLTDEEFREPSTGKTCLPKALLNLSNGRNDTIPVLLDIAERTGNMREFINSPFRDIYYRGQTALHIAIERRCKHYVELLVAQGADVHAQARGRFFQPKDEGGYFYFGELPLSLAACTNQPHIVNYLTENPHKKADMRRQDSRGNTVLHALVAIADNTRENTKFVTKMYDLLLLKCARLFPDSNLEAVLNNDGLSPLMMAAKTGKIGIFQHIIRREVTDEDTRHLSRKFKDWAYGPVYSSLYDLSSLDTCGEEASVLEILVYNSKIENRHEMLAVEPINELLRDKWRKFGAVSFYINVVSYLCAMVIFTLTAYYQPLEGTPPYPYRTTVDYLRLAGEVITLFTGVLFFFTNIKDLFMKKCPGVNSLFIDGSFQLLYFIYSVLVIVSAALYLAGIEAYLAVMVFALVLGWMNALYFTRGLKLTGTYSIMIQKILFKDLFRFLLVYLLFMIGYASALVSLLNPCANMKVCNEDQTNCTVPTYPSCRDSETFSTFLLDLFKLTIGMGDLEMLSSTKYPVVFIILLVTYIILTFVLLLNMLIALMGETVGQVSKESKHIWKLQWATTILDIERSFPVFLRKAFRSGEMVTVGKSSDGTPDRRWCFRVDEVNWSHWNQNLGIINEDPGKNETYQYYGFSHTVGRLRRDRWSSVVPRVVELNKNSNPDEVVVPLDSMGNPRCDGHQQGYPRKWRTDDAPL

CCCCCCCCCC(=O)O[C@@H]1[C@@H](C)[C@@]2(O)[C@@H](C=C(CO)C[C@@]3(O)C(=O)C(C)=C[C@@H]23)[C@@H]2C(C)(C)[C@]12OC(=O)CCCCCCCCC [4-α-PDD, 4-α-phorbol 12, 13-didecanoate]
TRPV4 currents, whole-cell clamp (TRPV4-EGFP): robust TRPV4 currents
calcium signal (TRPV4 channels [1]): robust calcium signal
calcium signal (TRPV4 channels [2]): robust calcium signal

CN(C)c1ccc(/C=C2\C(=O)Nc3ccccc32)cc1 [SU 4312]
vessel formation (VEGF [3]): blocked

CO[C@@H]1[C@H](OC(=O)NC(=O)CCl)CC[C@]2(CO2)[C@H]1[C@@]1(C)O[C@@H]1CC=C(C)C [TNP-470]
diet-induced and genetic obesity [4]: prevent
vascularity in the adipose tissue [4]: reduced

[Cl][Gd]([Cl])[Cl] [gadolinium chloride]
β1 integrin activation in response to mechanical strain (β1 integrin [5]): significantly inhibited
calcium influx on direct force application to β1 integrins (magnetic tweezers) [6]: blocked
β1 integrin activation in response to mechanical strain (β1 integrin [7]): significantly inhibited
calcium influx on force application to integrins [8]: inhibited
CE cell reorientation / re-alignment induced by mechanical strain (bovine CE cells): greatly suppressed
strain-induced translocation of AKT-PH-GFP to the membrane (PI3K): inhibited
calcium influx / cytosolic calcium induced by mechanical strain [9]: almost completely abolished; also recorded: reduced influx

N.N.N.N.N.N.N.N.N.N.N.N.N.N.[Cl-].[Cl-].[Cl-].[Cl-].[Cl-].[Cl-].[O-2].[O-2].[Ru+3].[Ru+3].[Ru+4] [ruthenium red]
CE cell reorientation / re-alignment induced by mechanical strain (bovine CE cells): significantly suppressed; also recorded: inhibits
CE cell apoptosis (poly(ADPribosyl) polymerase cleavage) (CE cells): did not effect
CE cell proliferation (Ki 67 staining) (CE cells): did not effect
calcium influx / cytosolic calcium induced by mechanical strain [9]: significantly suppressed; also recorded: reduced influx

dRK6: Anti-VEGF hexapeptide RRKRRR (SEQ. ID. NO. 12) ([dR][dR][dK][dR][dR][dR])
arthritis severity (VEGF [10]): suppress and mitigate
